Remaining activity and IC50 data for one compound are collected here from article PMC4710522, “A Novel Triazolopyridine-Based Spleen Tyrosine Kinase Inhibitor That Arrests Joint Inflammation” (PLoS ONE, 2016).

Type in all cases: biochemical
For assay [1], the target named is T1, CK1-gamma3_h (Homo sapiens, UniProt Q9Y6M4).
T1 construct: purchased Life Technologies (Invitrogen) SelectScreen, Z'-LYTE / Adapta
Put plainly: SelectScreen kinase assay. The settings on record: KM ATP, read-out: % control.

Assay [2] addresses T2, MEK2_h (Homo sapiens, UniProt P36507).
T2 construct: purchased Life Technologies (Invitrogen) SelectScreen, Z'-LYTE / Adapta
Nature of the assay: SelectScreen kinase assay. The settings on record: 100 µM ATP, read-out: % control.

Assay [3] deals with T3, Aurora A (Homo sapiens, UniProt O14965).
T3 construct: purchased Millipore 14-511
Nature of the assay: Aurora A IMAP TR-FRET assay. The settings on record: in-house, mean ± SD.

The IC50 is the point on the concentration scale where inhibition reaches its midpoint. A lower IC50 goes with greater potency in that assay.

T2 sequence (P36507 whole entry): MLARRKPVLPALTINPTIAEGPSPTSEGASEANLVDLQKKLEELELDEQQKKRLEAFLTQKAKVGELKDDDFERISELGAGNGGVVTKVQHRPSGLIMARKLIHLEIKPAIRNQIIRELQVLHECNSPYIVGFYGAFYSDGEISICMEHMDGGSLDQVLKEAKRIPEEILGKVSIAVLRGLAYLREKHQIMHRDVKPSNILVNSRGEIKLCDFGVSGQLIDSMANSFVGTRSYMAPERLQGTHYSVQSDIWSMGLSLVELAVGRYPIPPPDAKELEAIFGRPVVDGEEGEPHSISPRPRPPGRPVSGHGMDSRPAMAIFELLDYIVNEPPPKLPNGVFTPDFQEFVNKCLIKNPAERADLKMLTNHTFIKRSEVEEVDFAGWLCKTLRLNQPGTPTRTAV
T1 sequence (Q9Y6M4 whole entry): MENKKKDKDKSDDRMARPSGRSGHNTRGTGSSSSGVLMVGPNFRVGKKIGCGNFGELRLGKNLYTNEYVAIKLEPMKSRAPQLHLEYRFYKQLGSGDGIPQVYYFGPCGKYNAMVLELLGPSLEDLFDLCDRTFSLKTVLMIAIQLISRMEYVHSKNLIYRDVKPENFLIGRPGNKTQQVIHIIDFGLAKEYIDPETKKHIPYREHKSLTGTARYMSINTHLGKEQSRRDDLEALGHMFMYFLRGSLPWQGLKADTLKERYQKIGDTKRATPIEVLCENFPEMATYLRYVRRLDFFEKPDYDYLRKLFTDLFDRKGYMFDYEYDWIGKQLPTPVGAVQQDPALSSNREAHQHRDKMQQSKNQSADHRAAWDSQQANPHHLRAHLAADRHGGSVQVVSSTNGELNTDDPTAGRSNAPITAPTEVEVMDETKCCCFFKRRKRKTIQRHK
T3 sequence (O14965 whole entry): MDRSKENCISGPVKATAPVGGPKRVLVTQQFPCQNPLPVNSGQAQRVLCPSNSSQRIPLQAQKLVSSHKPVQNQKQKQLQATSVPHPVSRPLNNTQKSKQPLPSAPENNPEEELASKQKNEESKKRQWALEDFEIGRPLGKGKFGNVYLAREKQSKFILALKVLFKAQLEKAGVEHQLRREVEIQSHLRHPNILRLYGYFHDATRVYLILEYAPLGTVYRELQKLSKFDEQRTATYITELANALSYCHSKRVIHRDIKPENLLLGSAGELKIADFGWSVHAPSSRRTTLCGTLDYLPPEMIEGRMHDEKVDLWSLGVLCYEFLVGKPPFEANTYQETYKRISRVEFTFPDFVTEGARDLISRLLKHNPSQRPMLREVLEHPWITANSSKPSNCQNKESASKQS

As to `c1cc(CC2CCOCC2)n2nc(Nc3ccc4c(NC5CCOCC5)n[nH]c4c3)nc2c1` [CC-509, [3-(2H-3,4,5,6-tetrahydropyran-4-ylamino)(1H-indazol-6-yl)][5-(2H-3,4,5,6-tetrahydropyran-4-ylmethyl)(2H-1,2,4-triazolo[1,5-a]pyridin-2-yl)]amine], the remaining activity at 3 µM amounted to 50% in assay [1] and 73% in assay [2]. This compound showed a half-inhibitory concentration (IC50) in assay [3] of 220 ± 50 nM.
